Where no end group is shown, it is not given here.
Experiments:
[1] = tested on: HUVE cells; assay: Quantification of HUVE cell adhesion on gold-patterned silicon substrates (cell coverage, single cell ratio); assay type: cell-based, human; settings: HUVE cells cultured 18 hours; 20 μm gold squares; 378 cell adhesion regions
Method: Thus, quantification of single cell coverage is necessary for understanding the capability of this peptide-mediated cell adhesion process. HUVE cells were cultured on fibronectin and peptide modified platforms in standard culture media for 18 hours and stained with DAPI for cell nuclei to emit blue fluorescence. Fluorescence microscopy was used to identify single or multiple cells on gold square-based cell adhesion regions. Cell coverage and single cell population for each type of surface were quantified from 378 gold square-based cell adhesion regions (3 samples×2 areas of interest with 63 cell adhesion regions per area). Cell coverage was calculated from the ratio of gold square-based cell adhesion regions covered with cells to the total number of the cell adhesion regions in the area of interest, and single cell ratio was obtained by dividing the number of gold square-based cell adhesion regions covered with single cells to the total number of cell adhesion regions covered with cells (single or multiple). Exemplary images of adhered cells on three model platforms are shown in FIGS. 9A-D, and quantification results are shown in Table 1. As expected, the fibronectin and KREDVY modified surfaces have higher cell coverage than the REDVY modified surface due to larger number binding domains available on the former two surfaces than on the latter. Both peptide modified surfaces have much higher single cell ratios than the fibronectin modified surface. Clearly, the KREDVY modified surface is the best candidate for single cell patterning in light of both cell coverage and single cell ratio. As a side note, for electrical recording, it is easy to distinguish between single and multiple cells, allowing either type of site to be observed selectively.
HUVE cells were cultured in EGM-2 medium supplemented with bovine brain extract (BBE), hydrocortisone, hFGF-B, VEGF, R3-IGF-1, ascorbic acid, heparin, FBS, hEGF, and GA-1000. The final serum concentration was 2%. Cells were seeded on culture flasks at passage 1 and the medium was changed after 24 hours. At 70% confluency, cells were subcultured as follows. After aspiration from culture flasks, cells were rinsed with 2-3 ml of HEPES-BSS buffer solution for 3 times, followed by incubation with 2 ml of trypsin/EDTA solution. The trypsinization process continued until about 90% of the cells were collected. After cells were released, the trypsin was neutralized in the flask with 4 ml of TNS, and the detached cells were transferred to a 15-ml sterile centrifuge tube. The harvested cells were centrifuged at 220 g for 5 minutes. Cells were diluted in growth medium. Cells at a concentration of 1.5×10^5 cells/ml were seeded on the substrates. The substrates were incubated for 18 hours before fixation with a mixture of 2% glutaraldehyde and paraformaldehyde in phosphate buffer solution for optical microscopy and with 4% paraformaldehyde for fluorescence microscopy.

[2] = tested on: HUVE cells; assay: Cell viability assay (apoptosis and necrosis, Annexin V / propidium iodide) of patterned HUVE cells; assay type: cell-based, human; settings: after 7 days of cell adhesion
Description: Retaining cell viability after cell adhesion is essential for cell biology studies and biomedical applications such as cell-based sensors and drug screening microarrays. The viability of cells patterned on the three model platforms were studied with an apoptosis assay noted in EXAMPLE section. FIGS. 10A-F show fluorescence images of HUVE cells on cell patterning platforms immobilized with (a) fibronectin, (b) REDVY peptide, and (c) KREDVY peptide after 7 days of cell adhesion. Cells on the platform with chemically bound fibronectin appeared apoptotic and necrotic (FIGS. 10A and 10D). This might be caused by the competitive adhesion of multiple cells on a limited surface area of the gold square-based cell adhesion regions, hindering individual cell growth and survival. […] Because the conformation of fibronectin protein on the gold square-based cell adhesion regions varies from site to site, the degree of interactions of HUVE cells with the binding peptides of the protein and the number of cells attached on each site can differ from pattern to pattern.
VYBRANT apoptosis assay allows for the simultaneous visualization of viable, necrotic, and apoptotic cells on substrates. Necrosis results from direct cell damage; apoptosis is genetically-programmed cell death in which cells effectively commit suicide. […] The substrates were incubated with 100 μL of Annexin V and 2 μL of PI solution for 15 minutes at room temperature, washed twice with binding buffer, and imaged with a fluorescence microscope.

[3] = tested on: RAW264.7 cells (murine monocyte/macrophage); assay: Synchrotron FTIR spectromicroscopy of patterned macrophage cells exposed to LPS; assay type: cell-based; settings: for peak of amide I group post-exposure: single cells, eight electrodes of two substrates
Description: Cells in an isolated state (e.g., one cell on each microelectrode) generally respond differently to an external stimulus than when they are in a communicating state (e.g., a cluster of cells on a microelectrode).
IR spectra and optical reflectance DIC images were acquired from cells on the patterned substrates with single or a group of macrophage cells on each electrode both before and after cellular exposure to LPS. Synchrotron FTIR spectra were acquired from cell-patterned surfaces with a Nicolet Magna 760 FTIR bench and a Nicolet Nic-Plan™ IR microscope equipped with a computer-controlled x-y-z sample stage (via Nicolet Atlμs™ and OMNIC software) and an MCT-A detector at Beamline 1.4.3 of the Advanced Light Source (ALS) in Lawrence Berkeley National Laboratory, Berkeley. C A. Martin, M. C. and McKinney, R. W., Proceed. Mater. Res. Soc. 524, 11-15, 1998; C A. Martin, M. C. and McKinney, R. W., Proceedings of the Low Energy Electrodynamics in Solids, '99 Conference, Pécs, Hungary, Special Issue of Ferroelectrics, 249, 1-10, 2001. In order to align the incident IR beam onto the substrate, an IR map (with 2-10 μm step size in x-y plane) was acquired around a gold electrode for a full IR range of 400-10,000 wave numbers. Under this condition, the whole spectrum appeared as a broad peak and an intensity profile was given for the mapped region. The x, y positions were adjusted so that the highest intensity region of the beam was aligned with the center of the gold electrode. The samples were measured at wave numbers of 650-10,000 cm^−1 using an XT-KBr beamsplitter and an MCT detector. The synchrotron infrared light is focused to a diffraction-limited spot size with a wavelength-dependent diameter of approximately 3-10 μm across the mid-IR range of interest. Carr, G. L. Review of Scientific Instruments 72, 1613-1619, 2001; and Dumas, P., et al., Faraday Discussions 126, 289-302, 2004. An on-stage temperature controlled mini incubator was used to maintain a proper environment for cellular analysis. Prior to infrared analysis, dead and loosely bound cells were removed from the substrate by three PBS washes (to eliminate the possible interference of dead and loosely bound cells to the real-time signals generated by live cells), the cell culture medium was replaced with fresh sterile medium, and the substrate covered with a layer of the medium was transferred to the mini incubator. The spectra were acquired in less than 10 minutes following the sample transfer to ensure cell viability and to minimize possible interference from environmental changes. Synchrotron FTIR spectra of 128 scans at a resolution of 8 cm^−1 were acquired from individual electrodes patterned with cells. Background signals were collected from the silicon oxide surface of the same substrate right before the data collection. […] All spectra were baseline-corrected and normalized to account for the continuous decay of the synchrotron beam in the storage ring. An appropriately scaled water vapor spectrum was subtracted from the spectra of cells. The spectra obtained with conventional FTIR were acquired from cell-patterned surfaces using a Thermo-Electron Nexus 870 bench and a Thermo-Electron Continuum infrared microscope with an MCT-A detector at Beamline 1.4.4 of the ALS under the same conditions set for the synchrotron measurements, except that an aperture size of 90 μm×90 μm were employed to maximize the signal intensity.

[4] = tested on: RAW264.7 cells (murine monocyte/macrophage); assay: DIC reflectance microscopy of macrophage morphology after LPS exposure; assay type: cell-based; settings: LPS 0.1, 1.0 and 10 μg/mL, 21 hours
Description: Cell-cultured surfaces were examined with a differential interference contrast (DIC) reflectance microscope (Nikon E800 Upright Microscope, NY, N.Y.) equipped with DIC-20× (N.A. 0.46) and DIC-50× (N.A. 0.8) objectives. Images were acquired with a Coolsnap camera (series A99G81021, Roper Scientific Inc., AZ, USA) attached to the microscope and a computer. […] FIGS. 12A, 12C, and 12E are optical DIC images of electrodes with a single cell, double cells, and triple cells, respectively.

[5] = LPS 1 μg/mL, 21 hours, 10 μm×10 μm electrodes, mean±S.D. of four electrodes

Substance: Arg-Glu-Asp-Val-Tyr (REDVY)
- % Cell Coverage [1]: 56.28 ± 3.03%
- % Ratio of single-cell sites/total cell sites [1]: 62.25 ± 3.23%
- cell apoptosis / viability (Annexin V) [2]: became apoptotic at day 7
- cell necrosis (propidium iodide) [2]: No cell necrosis was observed

Substance: Fibronectin
- % Cell Coverage [1]: 83.47 ± 3.20%
- % Ratio of single-cell sites/total cell sites [1]: 27.41 ± 3.64%
- cell apoptosis / viability (Annexin V) [2]: apoptotic
- cell necrosis (propidium iodide) [2]: necrotic

Substance: KREDVY
- % Cell Coverage [1]: 78.40 ± 3.96%
- % Ratio of single-cell sites/total cell sites [1]: 72.17 ± 2.49%
- cell apoptosis / viability (Annexin V) [2]: remained viable throughout 7 days
- cell necrosis (propidium iodide) [2]: No cell necrosis was observed

Substance: lipopolysaccharide [LPS]
- Amide I wave number, Double cells [3, 5]: 1665 ± 2.6 cm⁻¹
- Amide I wave number, Single cell [3, 5]: 1661 ± 1.6 cm⁻¹
- Amide I wave number, Triple cells [3, 5]: 1658 ± 3.4 cm⁻¹
- peak of amide I group post-exposure ([3]; 0.1 μg/mL LPS, 21 hours): 1659 ± 1.7 cm⁻¹
- peak of amide I group post-exposure ([3]; 1 μg/mL LPS, 21 hours): 1661 ± 1.0 cm⁻¹
- peak of amide I group post-exposure ([3]; 10 μg/mL LPS, 21 hours): 1676 ± 1.0 cm⁻¹
- shift in wave number ([3]; single-cell platform, LPS 1.0 μg/mL): 30 cm⁻¹
- cell morphology [4]: enlarged, dendritic-like shape

Source: patent US10119958B2, “Arrays and methods for guided cell patterning” (University of Washington, priority 2007, dated 2018)
